Source: US20240041042A1, “1-(PYRIDYL)-5-AZINYLPYRAZOLE DERIVATIVES, AND THEIR USE FOR CONTROL OF UNDESIRED PLANT GROWTH” (Bayer Aktiengesellschaft, priority 2020, published 2024)
Where two headings read alike, the source gives them in different places.

What was measured:
Assay type in all cases: in vivo
Viola tricolor (VIOTR) = assay: Pre-emergence herbicidal action against VIOTR
Summary of the method: (§1)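 Herbicide applied to soil before seedling emergence, at 600 l/ha spray volume with 0.5% additive and rates up to 320 g/ha. Evaluation: visual percentage effect, about 3 weeks later, greenhouse-grown pots compared with untreated ones.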

[1] = system: Matricaria inodora (MATIN); assay: Post-emergence herbicidal action against MATIN
Summary of the method: (§2)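 Greenhouse plants sprayed at the one-leaf stage, 2–3 weeks after sowing, with WP or EC formulations plus 0.5% additive at 600 l/ha water. Activity rated visually after about 3 weeks versus untreated controls (100% = dead, 0% = like control), at 320 g/ha or lower.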

[2] = system: Digitaria sanguinalis (DIGSA); assay: Post-emergence herbicidal action against DIGSA; details: visual rating about 3 weeks after treatment
Summary of the method: as §2

[3] = system: Digitaria sanguinalis (DIGSA); assay: Pre-emergence herbicidal action against DIGSA
Summary of the method: as §1

Zea mays (ZEAMX) = details: for Post-emergence action against ZEAMX in %: crop plant compatibility, 80 g/ha, effect vs untreated controls; for Post-emergence action against ZEAMX in % (crop plant compatibility): 20 g/ha, effect in comparison to untreated controls
Summary of the method: (§3)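 Percent effect on the crop was judged by eye against untreated controls, where 0% means like control and 100% means dead plants. Plants had been sprayed post-emergence at the one-leaf stage and then kept under optimum greenhouse conditions for about 3 weeks.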

Oryza sativa (ORYSA) = details: crop plant compatibility
Summary of the method: as §3

Avena fatua (AVEFA) = assay: Post-emergence herbicidal action against AVEFA; details: visual rating about 3 weeks after treatment
Summary of the method: as §2

[4] = system: Echinochloa crus-galli (ECHCG); assay: Post-emergence herbicidal action against ECHCG
Summary of the method: as §2

[5] = system: Triticum aestivum (TRZAS); details: crop plant compatibility, 20 g/ha, effect vs untreated controls
Summary of the method: as §3

[6] = 80 g/ha, visual scoring after about 3 weeks vs untreated controls
[7] = 80 g/ha, effect in comparison to untreated controls
[8] = 20 g/ha, effect vs untreated controls
[9] = 320 g/ha, effect in comparison to untreated controls

SMILES: COC(=O)COc1nn(-c2ncccc2F)c(-c2ccc(F)nc2)c1Br [Example I-07]
- Pre-emergence action against VIOTR in % (Viola tricolor (VIOTR); 320 g/ha, Viola tricolor): 100%
- Pre-emergence action against VIOTR in % (Viola tricolor (VIOTR); dosage 80 g/ha): 90%
- Post-emergence action against MATIN in % ([1]; dosage 80 g/ha): 90%
- Post-emergence action against MATIN in % ([1]; dosage 320 g/ha): 100%
- Post-emergence action against DIGSA in % ([2]; 80 g/ha): 90%
- Post-emergence action against DIGSA in % ([2]; 320 g/ha): 90%
- Pre-emergence action against DIGSA in % [3, 6]: 100%
- Pre-emergence action against DIGSA in % ([3]; dosage 320 g/ha): 100%
- Post-emergence action against ZEAMX in % (Zea mays (ZEAMX)): 0%
- Post-emergence action against ORYSA in % (Oryza sativa (ORYSA); [7]): 0%
- Post-emergence action against AVEFA in % (Avena fatua (AVEFA); 320 g/ha): 90%
- Post-emergence action against ECHCG in % ([4]; dosage 320 g/ha): 90%

SMILES: COC(=O)COc1nn(-c2ncccc2F)c(-c2cncc(F)c2)c1Br [Example I-16]
- Pre-emergence action against VIOTR in % (Viola tricolor (VIOTR); 320 g/ha, Viola tricolor): 100%
- Pre-emergence action against VIOTR in % (Viola tricolor (VIOTR); dosage 80 g/ha): 100%
- Post-emergence action against MATIN in % ([1]; dosage 320 g/ha): 80%
- Pre-emergence action against DIGSA in % [3, 6]: 100%
- Pre-emergence action against DIGSA in % ([3]; dosage 320 g/ha): 100%
- Post-emergence action against ZEAMX in % (crop plant compatibility) (Zea mays (ZEAMX)): 10%
- Post-emergence action against ZEAMX in % (Zea mays (ZEAMX)): 20%
- Post-emergence action against TRZAS in % [5]: 20%
- Post-emergence action against ORYSA in % (Oryza sativa (ORYSA); [8]): 0%
- Post-emergence action against ORYSA in % (Oryza sativa (ORYSA); [7]): 10%
- Post-emergence action against ECHCG in % ([4]; dosage 80 g/ha): 80%
- Post-emergence action against ECHCG in % ([4]; dosage 320 g/ha): 80%

SMILES: O=C(O)COc1nn(-c2ncccc2F)c(-c2ccc(F)nc2)c1Br [Example I-17]
- Pre-emergence action against VIOTR in % (Viola tricolor (VIOTR); 320 g/ha, Viola tricolor): 100%
- Pre-emergence action against VIOTR in % (Viola tricolor (VIOTR); dosage 80 g/ha): 100%
- Post-emergence action against DIGSA in % ([2]; 80 g/ha): 90%
- Post-emergence action against DIGSA in % ([2]; 320 g/ha): 90%
- Pre-emergence action against DIGSA in % [3, 6]: 100%
- Pre-emergence action against DIGSA in % ([3]; dosage 320 g/ha): 100%
- Post-emergence action against ZEAMX in % (crop plant compatibility) (Zea mays (ZEAMX)): 10%
- Post-emergence action against TRZAS in % [5]: 10%
- Post-emergence action against ORYSA in % (Oryza sativa (ORYSA); [8]): 0%
- Post-emergence action against ORYSA in % (Oryza sativa (ORYSA); [7]): 10%
- Post-emergence action against AVEFA in % (Avena fatua (AVEFA); 320 g/ha): 80%
- Post-emergence action against ECHCG in % ([4]; dosage 80 g/ha): 80%
- Post-emergence action against ECHCG in % ([4]; dosage 320 g/ha): 80%

SMILES: C[C@@H](Oc1nn(-c2ncccc2F)c(-c2ccc(F)nc2)c1Br)C(=O)O [Example I-18]
- Pre-emergence action against VIOTR in % (Viola tricolor (VIOTR); 320 g/ha, Viola tricolor): 100%
- Pre-emergence action against VIOTR in % (Viola tricolor (VIOTR); dosage 80 g/ha): 100%
- Post-emergence action against MATIN in % ([1]; dosage 80 g/ha): 80%
- Post-emergence action against MATIN in % ([1]; dosage 320 g/ha): 80%
- Post-emergence action against DIGSA in % ([2]; 80 g/ha): 90%
- Post-emergence action against DIGSA in % ([2]; 320 g/ha): 90%
- Pre-emergence action against DIGSA in % [3, 6]: 100%
- Pre-emergence action against DIGSA in % ([3]; dosage 320 g/ha): 100%
- Post-emergence action against ORYSA in % (Oryza sativa (ORYSA); [8]): 0%
- Post-emergence action against ORYSA in % (Oryza sativa (ORYSA); [7]): 10%
- Post-emergence action against ORYSA in % (Oryza sativa (ORYSA); [9]): 20%
- Post-emergence action against AVEFA in % (Avena fatua (AVEFA); 320 g/ha): 80%
- Post-emergence action against ECHCG in % ([4]; dosage 80 g/ha): 80%
- Post-emergence action against ECHCG in % ([4]; dosage 320 g/ha): 80%

SMILES: O=C(O)COc1nn(-c2ccccn2)c(-c2cncnc2)c1Br [Example I-66]
- Pre-emergence action against VIOTR in % (Viola tricolor (VIOTR); 320 g/ha, Viola tricolor): 100%
- Pre-emergence action against VIOTR in % (Viola tricolor (VIOTR); dosage 80 g/ha): 90%
- Post-emergence action against MATIN in % ([1]; dosage 80 g/ha): 80%
- Post-emergence action against MATIN in % ([1]; dosage 320 g/ha): 90%
- Post-emergence action against DIGSA in % ([2]; 320 g/ha): 90%
- Pre-emergence action against DIGSA in % [3, 6]: 100%
- Pre-emergence action against DIGSA in % ([3]; dosage 320 g/ha): 100%
- Post-emergence action against ORYSA in % (Oryza sativa (ORYSA); [7]): 10%
- Post-emergence action against ORYSA in % (Oryza sativa (ORYSA); [9]): 20%
- Post-emergence action against AVEFA in % (Avena fatua (AVEFA); 320 g/ha): 100%
- Post-emergence action against ECHCG in % ([4]; dosage 80 g/ha): 80%
- Post-emergence action against ECHCG in % ([4]; dosage 320 g/ha): 90%

SMILES: COC(=O)COc1nn(-c2nc(F)ccc2F)c(-c2cncc(F)c2)c1C1CC1 [Example I-164]
- Pre-emergence action against VIOTR in % (Viola tricolor (VIOTR); 320 g/ha, Viola tricolor): 100%
- Pre-emergence action against VIOTR in % (Viola tricolor (VIOTR); dosage 80 g/ha): 100%
- Post-emergence action against MATIN in % ([1]; dosage 320 g/ha): 80%
- Post-emergence action against DIGSA in % ([2]; 80 g/ha): 80%
- Post-emergence action against DIGSA in % ([2]; 320 g/ha): 90%
- Pre-emergence action against DIGSA in % [3, 6]: 90%
- Pre-emergence action against DIGSA in % ([3]; dosage 320 g/ha): 100%
- Post-emergence action against AVEFA in % (Avena fatua (AVEFA); 80 g/ha): 80%
- Post-emergence action against AVEFA in % (Avena fatua (AVEFA); 320 g/ha): 80%
- Post-emergence action against ECHCG in % ([4]; dosage 80 g/ha): 80%
- Post-emergence action against ECHCG in % ([4]; dosage 320 g/ha): 80%

SMILES: C[C@@H](Oc1nn(-c2nc(F)ccc2F)c(-c2cncc(F)c2)c1C1CC1)C(=O)O [Example I-180]
- Pre-emergence action against VIOTR in % (Viola tricolor (VIOTR); 320 g/ha, Viola tricolor): 100%
- Pre-emergence action against VIOTR in % (Viola tricolor (VIOTR); dosage 80 g/ha): 100%
- Post-emergence action against MATIN in % ([1]; dosage 320 g/ha): 90%
- Post-emergence action against DIGSA in % ([2]; 80 g/ha): 80%
- Post-emergence action against DIGSA in % ([2]; 320 g/ha): 80%
- Pre-emergence action against DIGSA in % [3, 6]: 90%
- Pre-emergence action against DIGSA in % ([3]; dosage 320 g/ha): 100%
- Post-emergence action against AVEFA in % (Avena fatua (AVEFA); 80 g/ha): 80%
- Post-emergence action against AVEFA in % (Avena fatua (AVEFA); 320 g/ha): 90%
- Post-emergence action against ECHCG in % ([4]; dosage 80 g/ha): 80%
- Post-emergence action against ECHCG in % ([4]; dosage 320 g/ha): 90%

SMILES: COC(=O)[C@H](C)COC(=O)COc1nn(-c2ccccn2)c(-c2cncc(F)c2)c1Cl [Example I-192]
- Pre-emergence action against VIOTR in % (Viola tricolor (VIOTR); 320 g/ha, Viola tricolor): 100%
- Pre-emergence action against VIOTR in % (Viola tricolor (VIOTR); dosage 80 g/ha): 80%
- Post-emergence action against MATIN in % ([1]; dosage 320 g/ha): 80%
- Post-emergence action against DIGSA in % ([2]; 80 g/ha): 80%
- Post-emergence action against DIGSA in % ([2]; 320 g/ha): 80%
- Pre-emergence action against DIGSA in % [3, 6]: 90%
- Pre-emergence action against DIGSA in % ([3]; dosage 320 g/ha): 100%
- Post-emergence action against ORYSA in % (Oryza sativa (ORYSA); [7]): 0%
- Post-emergence action against AVEFA in % (Avena fatua (AVEFA); 320 g/ha): 80%
- Post-emergence action against ECHCG in % ([4]; dosage 80 g/ha): 90%
- Post-emergence action against ECHCG in % ([4]; dosage 320 g/ha): 90%

SMILES: COCCOC(=O)COc1nn(-c2ncccc2C)c(-c2cncc(F)c2)c1Br [Example I-212]
- Pre-emergence action against VIOTR in % (Viola tricolor (VIOTR); 320 g/ha, Viola tricolor): 100%
- Pre-emergence action against VIOTR in % (Viola tricolor (VIOTR); dosage 80 g/ha): 100%
- Post-emergence action against MATIN in % ([1]; dosage 320 g/ha): 80%
- Post-emergence action against DIGSA in % ([2]; 80 g/ha): 90%
- Post-emergence action against DIGSA in % ([2]; 320 g/ha): 90%
- Pre-emergence action against DIGSA in % [3, 6]: 100%
- Pre-emergence action against DIGSA in % ([3]; dosage 320 g/ha): 100%
- Post-emergence action against ORYSA in % (Oryza sativa (ORYSA); [7]): 10%
- Post-emergence action against AVEFA in % (Avena fatua (AVEFA); 80 g/ha): 80%
- Post-emergence action against AVEFA in % (Avena fatua (AVEFA); 320 g/ha): 90%
- Post-emergence action against ECHCG in % ([4]; dosage 80 g/ha): 90%
- Post-emergence action against ECHCG in % ([4]; dosage 320 g/ha): 90%
